Experimental data reported in patent publication US10632113B2, “Abuse-resistant drug formulations with built-in overdose protection” (KASHIV BIOSCIENCES, LLC, priority 2014, dated 2020).
Where a name gives a salt, the structure may show the parent alone.

Assays:
[1] = Dissolution studies using USP Apparatus II, single vs multiple doses; type: physicochemical; details: Type A + Type C granules in capsule, 250 ml medium pH 1.6, 10, 30, 60, 120 minutes
[2] = Binding studies using USP Apparatus I (naloxone to ion exchange polymer); type: physicochemical; details: 1:1 molar naloxone:Amberlite IRP64, 500 mL 0.1 N HCl / 5 mM phosphate buffer pH 6.8
Protocol: The following experiment was done. • 1. Based on the 1:1 molar ratio of naloxone:Amberlite™ IRP64, take the required quantity of naloxone and Amberlite™ IRP64 blend in a capsule and add it to 500 mL of the medium (0.1 N HCl/5 mM Phosphate buffer, pH 6.8). • 2. Withdraw dissolution samples at 10, 30 and 60 mins. • 3. Centrifuge the samples at 3000 rpm for 10 mins and filter through fritted filter ([…]) to get the supernatant for analysis. The results are illustrated in FIG. 9.

COc1ccc2c3c1O[C@H]1C(=O)CC[C@@]4(O)[C@@H](C2)N(C)CC[C@]314.Cl [oxycodone hydrochloride]
percentage of drug released, multiple doses versus single dose [1]: drastically reduced

C=CCN1CC[C@]23c4c5ccc(O)c4O[C@H]2C(=O)CC[C@@]3(O)[C@H]1C5 [naloxone hydrochloride]
percentage of naloxone hydrochloride bonded to ion exchange polymer, multiple doses versus single dose [2]: drastically increases
